Test results taken from ChEMBL document CHEMBL1641590, “Identification of novel ASK1 inhibitors using virtual screening” (Bioorg Med Chem, 2011).

What was measured:
[1] = target: T1, Mitogen-activated protein kinase kinase kinase 5 (Homo sapiens, UniProt Q99683); test: Inhibition of ASK1 assessed as phosphorylated fluorescent peptide by mobility shift assay
T1 sequence (Q99683 whole entry): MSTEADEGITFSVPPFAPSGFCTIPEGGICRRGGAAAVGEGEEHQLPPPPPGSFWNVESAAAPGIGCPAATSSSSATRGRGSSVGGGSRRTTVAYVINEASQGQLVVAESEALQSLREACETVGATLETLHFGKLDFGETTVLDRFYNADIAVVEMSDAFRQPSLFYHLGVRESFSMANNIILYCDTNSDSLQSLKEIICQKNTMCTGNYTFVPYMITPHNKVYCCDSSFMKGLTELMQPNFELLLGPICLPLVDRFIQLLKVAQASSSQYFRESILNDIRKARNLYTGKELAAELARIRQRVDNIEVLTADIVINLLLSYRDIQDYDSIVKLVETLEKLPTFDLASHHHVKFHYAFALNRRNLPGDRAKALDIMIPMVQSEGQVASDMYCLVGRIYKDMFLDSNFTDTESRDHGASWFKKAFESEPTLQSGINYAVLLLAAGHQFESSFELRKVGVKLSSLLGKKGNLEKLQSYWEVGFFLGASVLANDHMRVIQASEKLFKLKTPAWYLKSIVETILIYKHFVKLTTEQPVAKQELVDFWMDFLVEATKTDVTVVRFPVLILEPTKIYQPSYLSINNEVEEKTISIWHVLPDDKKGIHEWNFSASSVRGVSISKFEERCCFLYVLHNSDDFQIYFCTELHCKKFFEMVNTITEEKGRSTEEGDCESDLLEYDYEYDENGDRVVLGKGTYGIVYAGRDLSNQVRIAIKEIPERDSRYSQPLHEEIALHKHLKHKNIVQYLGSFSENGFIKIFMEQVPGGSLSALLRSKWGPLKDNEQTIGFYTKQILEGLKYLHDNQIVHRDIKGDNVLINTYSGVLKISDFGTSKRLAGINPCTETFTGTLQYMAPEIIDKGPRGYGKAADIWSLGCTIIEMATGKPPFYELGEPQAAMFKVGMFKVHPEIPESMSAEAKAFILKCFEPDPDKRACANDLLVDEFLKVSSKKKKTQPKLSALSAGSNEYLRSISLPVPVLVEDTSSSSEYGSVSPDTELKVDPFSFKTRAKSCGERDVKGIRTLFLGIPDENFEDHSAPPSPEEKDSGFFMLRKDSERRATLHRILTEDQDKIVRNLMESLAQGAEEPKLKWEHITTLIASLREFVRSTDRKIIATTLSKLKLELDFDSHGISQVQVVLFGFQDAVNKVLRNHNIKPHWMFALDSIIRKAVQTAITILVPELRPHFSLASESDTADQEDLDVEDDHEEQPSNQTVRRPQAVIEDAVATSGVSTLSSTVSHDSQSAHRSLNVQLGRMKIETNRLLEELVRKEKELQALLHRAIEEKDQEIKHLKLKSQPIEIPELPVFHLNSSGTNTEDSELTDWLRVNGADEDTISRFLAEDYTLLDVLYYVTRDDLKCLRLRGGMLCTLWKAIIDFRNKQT

[2] = target: T2, Mitogen-activated protein kinase kinase kinase 5 (Homo sapiens) (UniProt Q99683); test: Inhibition of ASK1 assessed as phosphorylated fluorescent peptide at 10 uM by mobility shift assay
T2 sequence (whole entry): T1 sequence (Q99683 whole entry)

Compound	IC50 [1] [µM]	inhibition [2] [%]
CCCN(CCC)c1[nH]cnc2ncnc1-2	25.8	> 50
CS(=O)(=O)c1ccc(C(=O)Nc2nc3ccccc3[nH]2)cc1[N+](=O)[O-]		> 30
O=C(Nc1ccc(N2CCOCC2)cc1)c1n[nH]c2ccccc12		> 30
Nc1nc(OCC2CCCCC2)c2nc[nH]c2n1		> 50
Nc1nc(N)c2c(Cl)c(Br)ccc2n1		> 30
Nc1nc(OCc2ccccc2)c2nc[nH]c2n1		> 30
Nc1nc(SCc2c(Cl)cccc2Cl)c2nc[nH]c2n1		> 30
Cc1c(C)n(CC(C)C)c2ncnc(N)c12		> 30
CC(C)(C)c1ccc(C(=O)Nc2cn3cc(-n4ccnc4)ccc3n2)cc1	0.014	
CNc1nc(N)c(C(=O)c2ccc(F)cc2)s1		> 30
CC(C)(C(=O)O)c1ccc(C(=O)Nc2cn3cc(-c4ccsc4)ccc3n2)cc1	0.019	
CSc1nc(N)nc2[nH]cnc12	13.3	> 50
Nc1nc(Nc2cccc3ccccc23)c2nc[nH]c2n1		> 30
Nc1nc(SCCCCC(O)O)c2nc[nH]c2n1		> 30
CCNc1nc(N)c(C(C)=O)s1		> 30
CC(C)(C)c1ccc(C(=O)Nc2cn3c(ccc4ccccc43)n2)cc1	0.015	
CNc1nc(-c2cccnc2)cn2ccnc12		> 30
COc1cccc(C(=O)NN2CC(=O)C(c3nc4ccccc4c(=O)[nH]3)=C2N)c1		> 30
COc1ccc(OC)c(Nc2nc(N)nc3[nH]cnc23)c1	18.9	> 50
CN(C)c1ncnc2nc[nH]c12		> 30
Cc1c(C)n(C2CCCC2)c2nc[nH]c(=O)c12		> 30
NC(=O)c1ccc(-n2cnc3ccccc32)cc1		> 30
c1nc(N2CCCCC2)c2nc[nH]c2n1	17	> 50
O=C(Nc1nc2ccccc2[nH]1)c1ccc2ncsc2c1		> 30
